These results are taken from US11427553B2, “Dihydrooxadiazinones” (Bayer Aktiengesellschaft, priority 2017, dated 2022).

Molecules are shown by their SMILES. Structures can show the parent of a compound that is named as a salt. A value given as a limit tells only on which side of the number the result lay.

For one assay, the system named is SK-MEL-3 cells. Nature of the assay: Assay 1 cell proliferation measurement (CTG, 72 h), SK-MEL-3. The assay is classed as cell-based, human. The conditions noted are these: Homo sapiens, SK-MEL3; Assay 1, 72 h, Cell Titer Glo; read-out: SK-MEL-3 IC50 [nM] (melanoma). In outline: (§1)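 Seed cells, incubate overnight at 37 °C; measure baseline viability (CTG, 0 h plate); dose compound in a 10-step 2.5-fold series (max generally 100 nM final, DMSO 0.3%) for 72 h; read CTG luminescence; fit IC50 with 4 parameters.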
(In general: In ATP-based viability assays light output follows the ATP content of the culture.)

The next assay concerns the target human full length PDE3A (Homo sapiens (Human), UniProt Q14432). As to the kind of experiment: Assay 4 PDE3A enzyme inhibition (3H-cAMP SPA). The conditions noted are these: Sf9 cell extract. The assay is classed as biochemical. In outline:
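Enzyme: Sf9 extract with overexpressed full-length PDE3A; substrate [8-3H]cAMP, 0.025 μCi/well; 60 min, room temperature, Tris/HCl pH 7.5 buffer with MgCl2, EDTA, BSA.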

In the next assay the test system is HeLa cells. Nature of the assay: Assay 1 cell proliferation measurement (CTG, 72 h), HeLa. The assay is classed as cell-based, human. The conditions noted are these: Homo sapiens, HeLa; Assay 1, 72 h, Cell Titer Glo; read-out: HeLa IC50 [nM] (Cervical cancer). In outline: as §1
Another assay addresses human full length PDE3B (Homo sapiens (Human), UniProt Q13370). As to the kind of experiment: Assay 5 PDE3B enzyme inhibition (3H-cAMP SPA). The assay is classed as biochemical. The conditions noted are these: Sf9 cell extract. In outline:
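Hydrolysis of tritiated cAMP by Sf9-expressed full-length human PDE3B proceeded 60 min at room temperature in Tris buffer pH 7.5 containing Mg2+, EDTA and BSA, with enzyme dilution keeping substrate consumption below 70%. IC50 derived from percent activity versus log compound concentration.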

human full length PDE3B, sequence (Q13370 whole entry): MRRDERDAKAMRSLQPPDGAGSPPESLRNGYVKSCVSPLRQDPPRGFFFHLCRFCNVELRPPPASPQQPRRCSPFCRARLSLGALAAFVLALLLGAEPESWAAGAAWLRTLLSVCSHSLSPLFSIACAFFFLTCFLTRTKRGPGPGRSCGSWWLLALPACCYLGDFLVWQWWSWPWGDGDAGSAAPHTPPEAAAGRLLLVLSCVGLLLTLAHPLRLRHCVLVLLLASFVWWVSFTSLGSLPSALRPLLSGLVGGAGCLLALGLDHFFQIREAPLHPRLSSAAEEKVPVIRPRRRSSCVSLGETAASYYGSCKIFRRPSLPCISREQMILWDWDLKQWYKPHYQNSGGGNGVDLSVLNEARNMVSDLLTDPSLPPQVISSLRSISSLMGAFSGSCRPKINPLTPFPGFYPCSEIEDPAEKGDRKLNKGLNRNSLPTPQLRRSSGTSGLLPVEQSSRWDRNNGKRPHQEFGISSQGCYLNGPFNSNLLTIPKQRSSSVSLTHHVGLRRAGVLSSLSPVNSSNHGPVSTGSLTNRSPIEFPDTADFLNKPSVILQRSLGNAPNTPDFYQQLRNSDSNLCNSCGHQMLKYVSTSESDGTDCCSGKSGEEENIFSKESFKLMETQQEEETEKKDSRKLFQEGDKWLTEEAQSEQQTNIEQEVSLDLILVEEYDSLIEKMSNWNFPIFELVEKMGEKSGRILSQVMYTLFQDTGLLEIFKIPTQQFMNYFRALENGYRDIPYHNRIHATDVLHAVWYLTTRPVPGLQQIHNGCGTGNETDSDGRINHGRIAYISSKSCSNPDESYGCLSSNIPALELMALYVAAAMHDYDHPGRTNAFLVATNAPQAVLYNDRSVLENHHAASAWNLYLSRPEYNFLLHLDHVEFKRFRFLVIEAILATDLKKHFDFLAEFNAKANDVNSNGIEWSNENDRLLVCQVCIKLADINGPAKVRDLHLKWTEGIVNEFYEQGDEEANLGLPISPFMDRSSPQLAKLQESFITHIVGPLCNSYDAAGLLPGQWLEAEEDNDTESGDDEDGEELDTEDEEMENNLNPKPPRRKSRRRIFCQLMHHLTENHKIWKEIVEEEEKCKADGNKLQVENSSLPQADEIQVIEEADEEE
human full length PDE3A, sequence (Q14432 whole entry): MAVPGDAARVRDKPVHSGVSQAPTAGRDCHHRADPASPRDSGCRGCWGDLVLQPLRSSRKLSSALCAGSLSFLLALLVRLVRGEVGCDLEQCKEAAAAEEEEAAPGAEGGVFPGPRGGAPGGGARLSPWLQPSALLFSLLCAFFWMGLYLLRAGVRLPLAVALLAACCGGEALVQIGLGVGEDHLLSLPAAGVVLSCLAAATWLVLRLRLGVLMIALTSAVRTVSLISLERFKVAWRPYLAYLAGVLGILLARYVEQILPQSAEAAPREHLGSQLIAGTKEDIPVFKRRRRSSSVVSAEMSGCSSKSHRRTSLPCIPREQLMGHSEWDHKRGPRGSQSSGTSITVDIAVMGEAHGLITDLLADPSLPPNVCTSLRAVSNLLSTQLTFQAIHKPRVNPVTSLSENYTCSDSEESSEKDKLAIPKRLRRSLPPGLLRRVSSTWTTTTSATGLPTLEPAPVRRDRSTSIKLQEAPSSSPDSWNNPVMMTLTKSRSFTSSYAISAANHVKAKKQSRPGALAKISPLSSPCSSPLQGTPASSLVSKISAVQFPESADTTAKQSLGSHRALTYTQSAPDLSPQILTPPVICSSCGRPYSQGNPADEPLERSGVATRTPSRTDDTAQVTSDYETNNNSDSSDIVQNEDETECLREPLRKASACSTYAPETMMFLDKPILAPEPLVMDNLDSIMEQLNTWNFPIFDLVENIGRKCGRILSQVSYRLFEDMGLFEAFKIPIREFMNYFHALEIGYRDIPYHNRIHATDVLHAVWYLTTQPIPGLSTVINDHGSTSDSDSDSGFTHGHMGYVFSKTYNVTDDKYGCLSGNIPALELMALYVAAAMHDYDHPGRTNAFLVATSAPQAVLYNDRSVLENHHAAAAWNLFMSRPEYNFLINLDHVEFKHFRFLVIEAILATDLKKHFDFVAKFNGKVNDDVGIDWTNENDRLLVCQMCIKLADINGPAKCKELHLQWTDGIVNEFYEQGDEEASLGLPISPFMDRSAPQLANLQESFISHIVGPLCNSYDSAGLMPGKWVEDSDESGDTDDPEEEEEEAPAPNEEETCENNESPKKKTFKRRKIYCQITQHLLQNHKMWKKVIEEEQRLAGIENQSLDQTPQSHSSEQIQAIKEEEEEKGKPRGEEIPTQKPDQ

For the compound `O=C1NN=C(c2ccc(C3=CCCC3)c(C(F)(F)F)c2)CO1` [Example 150, 5-[4-(Cyclopent-1-en-1-yl)-3-(trifluoromethyl)phenyl]-3,6-dihydro-2H-1,3,4-oxadiazin-2-one], the IC50 in the assay with SK-MEL-3 cells amounted to 5 nM; on human full length PDE3A it was 240 nM; in the assay with HeLa cells, 2 nM; on human full length PDE3B it was 250 nM.

For `NCCNc1ccc(C2=NNC(=O)OC2)cc1C(F)(F)F` [Example 274, 5-{4-[(2-Aminoethyl)amino]-3-(trifluoromethyl)phenyl}-3,6-dihydro-2H-1,3,4-oxadiazin-2-one-salt with hydrochloric acid], the IC50 with SK-MEL-3 cells was 31 nM; against human full length PDE3A, 300 nM; in the assay on HeLa cells, 19 nM; against human full length PDE3B, 400 nM.

With `Nc1ccc(-c2ccc(C3=NNC(=O)OC3)cc2C(F)(F)F)c(F)c1` [Example 44, 5-[4′-Amino-2′-fluoro-2-(trifluoromethyl)biphenyl-4-yl]-3,6-dihydro-2H-1,3,4-oxadiazin-2-one], the IC50 in the assay with SK-MEL-3 cells was found to be 9 nM; against human full length PDE3A, 190 nM; with HeLa cells, 14 nM; against human full length PDE3B, 200 nM.

For the compound `Cc1cc(C2=NNC(=O)OC2)ccc1-c1ccccc1` [Example 27, 5-(2-Methylbiphenyl-4-yl)-3,6-dihydro-2H-1,3,4-oxadiazin-2-one], the half-inhibitory concentration (IC50) came out at 6 nM in the assay on SK-MEL-3 cells, 75 nM at human full length PDE3A, 2 nM in the assay on HeLa cells and 110 nM against human full length PDE3B.

As for `O=C1NN=C(c2cc(F)c(-c3cnn(C(F)F)c3)c(C(F)(F)F)c2)CO1` [Example 193, 5-{4-[1-(Difluoromethyl)-1H-pyrazol-4-yl]-3-fluoro-5-(trifluoromethyl)phenyl}-3,6-dihydro-2H-1,3,4-oxadiazin-2-one], the IC50 in the assay on SK-MEL-3 cells was found to be 9 nM; on human full length PDE3A, 195 nM; in the assay on HeLa cells, 5 nM; at human full length PDE3B, 215 nM.

`CC(C)n1cc(-c2ccc(C3=NNC(=O)OC3)cc2C(F)F)cn1` [Example 263, 5-{3-(Difluoromethyl)-4-[1-(propan-2-yl)-1H-pyrazol-4-yl]phenyl}-3,6-dihydro-2H-1,3,4-oxadiazin-2-one]: the IC50 with SK-MEL-3 cells is 32 nM; against human full length PDE3A, 50 nM; with HeLa cells, 9 nM; against human full length PDE3B, 46 nM.

Consider `Cc1nc2cc(-c3ccc(C4=NNC(=O)OC4)cc3C(F)(F)F)ccc2s1` [Example 325, 5-[4-(2-methyl-1,3-benzothiazol-5-yl)-3-(trifluoromethyl)phenyl]-3,6-dihydro-2H-1,3,4-oxadiazin-2-one], for which the IC50 in the assay on SK-MEL-3 cells was above 100 nM; on human full length PDE3A, 56 nM; in the assay with HeLa cells, above 100 nM; against human full length PDE3B it was 150 nM.

Regarding `O=C1NN=C(c2ccc(Cl)c(C(F)(F)F)c2)CO1` [Intermediate 64, 5-[4-Chloro-3-(trifluoromethyl)phenyl]-3,6-dihydro-2H-1,3,4-oxadiazin-2-one], the IC50 in the assay on SK-MEL-3 cells was determined as 53 nM; against human full length PDE3A, 610 nM; in the assay with HeLa cells, 29 nM; at human full length PDE3B it was 490 nM.

On to `Cc1cc(-c2ccc(C3=NNC(=O)OC3)cc2C(F)(F)F)sc1C#N` [Example 152, 3-Methyl-5-[4-(2-oxo-3,6-dihydro-2H-1,3,4-oxadiazin-5-yl)-2-(trifluoromethyl)phenyl]thiophene-2-carbonitrile], for which the IC50 amounted to 56 nM with SK-MEL-3 cells, 63 nM on human full length PDE3A, 21 nM in the assay with HeLa cells and 76 nM against human full length PDE3B.

Regarding `Cc1noc(C)c1-c1ccc(C2=NNC(=O)OC2)cc1C(F)(F)F` [Example 129, 5-[4-(3,5-Dimethyl-1,2-oxazol-4-yl)-3-(trifluoromethyl)phenyl]-3,6-dihydro-2H-1,3,4-oxadiazin-2-one], the IC50 is above 100 nM in the assay on SK-MEL-3 cells, 970 nM on human full length PDE3A, above 100 nM with HeLa cells and 770 nM on human full length PDE3B.

For the compound `C[C@@H]1OC(=O)NN=C1c1ccc(-c2ccc3cc[nH]c3c2)c(C(F)(F)F)c1` [Example 185, (6S)-5-[4-(1H-Indol-6-yl)-3-(trifluoromethyl)phenyl]-6-methyl-3,6-dihydro-2H-1,3,4-oxadiazin-2-one], the IC50 was found to be 6 nM with SK-MEL-3 cells, 49 nM against human full length PDE3A, 4 nM in the assay on HeLa cells and 48 nM against human full length PDE3B.

`O=C1NN=C(c2ccc(NC3COC3)c(C(F)(F)F)c2)CO1` [Example 262, 5-{4-[(Oxetan-3-yl)amino]-3-(trifluoromethyl)phenyl}-3,6-dihydro-2H-1,3,4-oxadiazin-2-one]: the IC50 with SK-MEL-3 cells worked out at 5 nM; against human full length PDE3A, 18 nM; in the assay with HeLa cells it was 2 nM; against human full length PDE3B, 20 nM.

Regarding `Cc1ccc(-c2ccc(C3=NNC(=O)OC3)cc2C(F)F)cn1` [Example 200, 5-[3-(Difluoromethyl)-4-(6-methylpyridin-3-yl)phenyl]-3,6-dihydro-2H-1,3,4-oxadiazin-2-one], the IC50 with SK-MEL-3 cells turned out to be 22 nM; against human full length PDE3A it was 34 nM; in the assay on HeLa cells, 10 nM; at human full length PDE3B it was 66 nM.

With `C[C@@H]1OC(=O)NN=C1c1ccc(-c2ccccc2C#N)c(C(F)(F)F)c1` [Example 172, 4′-[(6S)-6-Methyl-2-oxo-3,6-dihydro-2H-1,3,4-oxadiazin-5-yl]-2′-(trifluoromethyl)[1,1′-biphenyl]-2-carbonitrile], the IC50 was determined as 48 nM in the assay on SK-MEL-3 cells, 290 nM against human full length PDE3A, 37 nM with HeLa cells and 520 nM against human full length PDE3B.

Regarding `Cc1ccc(-c2ccc(C3=NNC(=O)O[C@H]3C)cc2C(F)(F)F)cc1F` [Example 178, (6S)-5-[3′-Fluoro-4′-methyl-2-(trifluoromethyl)[1,1′-biphenyl]-4-yl]-6-methyl-3,6-dihydro-2H-1,3,4-oxadiazin-2-one], the IC50 turned out to be 19 nM with SK-MEL-3 cells, 140 nM against human full length PDE3A, 13 nM with HeLa cells and 130 nM on human full length PDE3B.

In the case of `C[C@@H]1OC(=O)NN=C1c1cc(F)c(N2CCOCC2)c(F)c1` [Example 25-2, (6S)-5-(3,5-Difluoro-4-morpholinophenyl)-6-methyl-3,6-dihydro-2H-1,3,4-oxadiazin-2-one], the IC50 in the assay with SK-MEL-3 cells is 5 nM; against human full length PDE3A it was 17 nM; in the assay on HeLa cells, 3 nM; at human full length PDE3B, 15 nM.

Take `Cn1cnc2ccc(-c3ccc(C4=NNC(=O)OC4)cc3C(F)(F)F)cc21` [Example 73, 5-[4-(1-Methyl-1H-benzimidazol-6-yl)-3-(trifluoromethyl)phenyl]-3,6-dihydro-2H-1,3,4-oxadiazin-2-one]: the IC50 in the assay on SK-MEL-3 cells was 46 nM; on human full length PDE3A, 18 nM; in the assay on HeLa cells it was 25 nM; against human full length PDE3B, 41 nM.

For the compound `CC1OC(=O)NN=C1c1ccc(Br)cc1` (racemic) [Intermediate 72, (rac)-5-(4-Bromophenyl)-6-methyl-3,6-dihydro-2H-1,3,4-oxadiazin-2-one], the IC50 with SK-MEL-3 cells came out at 260 nM; at human full length PDE3A, 320 nM; in the assay on HeLa cells, 78 nM; against human full length PDE3B, 400 nM.

`C[C@@H]1OC(=O)NN=C1c1ccc(N2CCOCC2)c(F)c1` [Example 25-1, (6S)-5-(3-Fluoro-4-morpholinophenyl)-6-methyl-3,6-dihydro-2H-1,3,4-oxadiazin-2-one]: the IC50 in the assay on SK-MEL-3 cells was determined as 3 nM; at human full length PDE3A, 44 nM; in the assay on HeLa cells, 2 nM; against human full length PDE3B, 22 nM.

As for `O=C1NN=C(c2ccc(C3=CCCC3)c(F)c2)CO1` [Example 83, 5-[4-(Cyclopent-1-en-1-yl)-3-fluorophenyl]-3,6-dihydro-2H-1,3,4-oxadiazin-2-one], the IC50 in the assay with SK-MEL-3 cells came to 6 nM; against human full length PDE3A, 100 nM; in the assay with HeLa cells, 3 nM; against human full length PDE3B, 250 nM.

On to `O=C1NN=C(c2ccc(N3CCC3)c(C(F)(F)F)c2)CO1` [Example 72, 5-[4-(Azetidin-1-yl)-3-(trifluoromethyl)phenyl]-3,6-dihydro-2H-1,3,4-oxadiazin-2-one], for which the concentration for half-maximal inhibition (IC50) with SK-MEL-3 cells turned out to be 5 nM; against human full length PDE3A it was 74 nM; in the assay on HeLa cells, 2 nM; on human full length PDE3B, 180 nM.

On to `Cc1ccccc1-c1ccc(C2=NNC(=O)OC2)cc1F` [Example 81, 5-(2-Fluoro-2′-methylbiphenyl-4-yl)-3,6-dihydro-2H-1,3,4-oxadiazin-2-one], for which the half-maximal inhibitory concentration (IC50) with SK-MEL-3 cells came to 9 nM; against human full length PDE3A, 130 nM; with HeLa cells, 4 nM; at human full length PDE3B, 270 nM.

Turning to `O=C1NN=C(c2ccc(N3CCC(F)CC3)c(F)c2)CO1` [Example 6, 5-[3-Fluoro-4-(4-fluoropiperidin-1-yl)phenyl]-3,6-dihydro-2H-1,3,4-oxadiazin-2-one], the half-inhibitory concentration (IC50) with SK-MEL-3 cells is 9 nM; at human full length PDE3A, 100 nM; in the assay with HeLa cells, 5 nM; against human full length PDE3B, 110 nM.

As for `CN(C)CCNc1ccc(C2=NNC(=O)OC2)cc1C(F)(F)F` [Example 323, 5-[4-{[2-(dimethylamino)ethyl]amino}-3-(trifluoromethyl)phenyl]-3,6-dihydro-2H-1,3,4-oxadiazin-2-one], the IC50 is above 100 nM with SK-MEL-3 cells, above 280 nM at human full length PDE3A, above 84 nM with HeLa cells and above 910 nM against human full length PDE3B.

The IC50 is the concentration that inhibits the measured activity by half.
